Legend:
intraocular pressure = assay: Intraocular pressure reducing action (Test Example 4); format: in vivo, Japanese white rabbit; details: rabbit, 50 μl of aqueous solution dropped to the left eye
Protocol: A Japanese white rabbit having a body weight of about 2 kg was placed in a positioner and naturalized for one week before the experiment. An ophthalmologic local anesthesant (Benoxil) was administered to the left eye, and then intraocular pressure was measured by using a tonometer (Classic 30, Solan). The initial value of the intraocular pressure was measured, then 50 μl of an aqueous solution of a test compound was dropped to the left eye at various concentrations, and the intraocular pressure was measured with passage of time.

[1] = test system: lipopolysaccharide-induced pulmonary inflammation; assay: Pulmonary inflammation suppressing action, LPS-induced (Test Example 8); format: in vivo, BALB/c female mice; details: mice, LPS inhalation, test compound by inhalation over 10 minutes, 3 hours after administration
From the text: According to Gonzales de Moraes, V L., et al., Br. J. Pharmacol., 123, pp. 631–6, 1998, suppressing action on pulmonary inflammation was studied. BALB/c female mice (7-week old) were used for the test, as the compound administration group and positive control group, each consisting of 7 mice, as well as the negative control group consisting of 5 mice. For induction of inflammation, a 0.03% physiological saline solution of a lipopolysaccharide (LPS, a mixture derived from Escherichia coli O55 and B5 strains, Sigma) was used. A test compound was dissolved in physiological saline to prepare solutions of various concentrations. The test animals were first inhaled with the aforementioned lipopolysaccharide solution for 10 minutes by using a pressurization type nebulizer (PARI-IS2) to induce inflammation. Then, 1 minute after the completion of the inhalation of the lipopolysaccharide solution, the animals were administered with a solution of test compound at various concentrations over 10 minutes by inhalation using the aforementioned nebulizer. The mice of the positive control group were administered with the same volume of physiological saline instead of the test compound solution over 10 minutes by inhalation. Three hours after the administration of the test compound, pulmonary cavities of the test animals were washed with physiological saline, and the total infiltrated leucocyte (WBC) number was counted.

[2] = test system: cerebral hippocampal neurons; assay: Neurite outgrowth action (Test Example 5); format: cell-based, Sprague-Dawley rats; details: rat hippocampal neurons, 24 hours after addition
Protocol: From 18 day-old Sprague-Dawley rats, cerebral hippocampal neurons were prepared according to the method of Neuman et al. (Neuman, H. R. et al., J. Neurosci., 22, pp. 854–862, 2002). The prepared neurons were cultured for 24 hours according to the method of Tanaka et al. (Tanaka, H. et al., J. Cell Biol., 158 (2), pp. 321–329, 2002), then the medium was exchanged with fresh medium, and test medicaments of various concentrations or equivalent amounts of vehicle were added. Twenty-four hours after the addition of the medicaments, neurite length of each neuron was measured for the medicament-added group and the no-addition group, and compared. The neurite length was evaluated according to the method of Neuman et al. (Neuman, H. R. et al., J. Neurosci., 22, pp. 854–862, 2002).

[3] = test system: thoracic aorta constricted with phenylephrine; assay: Vasoconstriction inhibitory action (Test Example 2); set-up: species or system Rats (Wistar); details: test compound 1 μM; rat thoracic aorta constricted with phenylephrine 1 μM
From the text: Rats (Wistar, 11-week old) were bleeded to death and laparotomized to take out the thoracic aorta. That aorta was cut into a ring of a length of about 3 mm in a conventional manner (Asano, T., et al., J. Pharmacol. Exp. Ther., 241, pp. 1033–1040 (1987)) and hung in 10-ml organ bath filled with Krebs-Hensright nutrient solution bubbled with a mixed gas of 95% O2 and 5% CO2. One end of the blood vessel was connected to an isometric transducer (FD Pickup TB-912T, Nihon Kohden) and applied with 2.5 g of resting tension, and constriction and relaxation reactions of the aorta were recorded.
The aorta was constricted with phenylephrine (1 μM, Sigma) and then added with a test compound (1 μM), and the vasoconstriction inhibitory action thereof was observed. The vasoconstriction inhibitory actions of the test compounds were calculated as relaxation ratios, which were based on the vasoconstriction with phenylephrine observed immediately before the addition of the test compounds taken as 100%.

neutrophils = assay: Neutrophil migration inhibitory action, Boyden Chamber, FMLP (Test Example 6); format: cell-based; details: 0.5 h, human neutrophils, FMLP 1 μM, 37° C., 30 minutes, read-out: concentration at which the migration of neutrophils is inhibited (IC50)
Protocol: Neutrophils were isolated from 50 to 100 ml of peripheral blood collected from healthy human donors by the method described in Test Example 1 to obtain a cell suspension (8×10^6/ml). Subsequently, solutions of a test compound at various concentrations were introduced into wells of a 96-well plate in a volume of 125 μl per well, the cell suspension of an equivalent volume was added to it and the plate was preincubated at room temperature for 5 minutes. During the preincubation, FMLP (1 μM, Sigma) solution was added to the lower chamber to set Boyden Chamber, the preincubated cell suspension was added to the upper chamber in a volume of 200 μl per well, and the cells were allowed to migrate at 37° C. under 5% carbon dioxide for 30 minutes. The filter after the migration was collected, and the non-migrated cells adhered to the surface that faced the upper chamber were carefully wiped off. Then, the migrated cells on the back surface were stained with DifQuick dye solution (International Reagents), washed with water and dried, and then absorbance was measured at 595 nm. The inhibition ratio against migration (%) of a test compound was calculated by using the following equation: Migration inhibition ratio (%)=(1−Absorbance of the group with addition of test compound/Absorbance of the group without addition of test compound)×100
Further, the migration inhibitory ratio was calculated with changing the test compound concentration, and a compound concentration providing an inhibition ratio of 50% was obtained as IC50. The compounds of the present invention obtained in Examples 1, 11, 12, 13, 14, 15, 16, 18, 19, 20, 21, 22, 24, 31, 41, 42, 47, 52, 53, 54, 55, 56, 57, 58, 59, 60, 62, 63, 64, 65, 66, 67, 68, 72, 73, 74, 75, 76, 77, 78, 79, 80, 81, 82, 83, 84, 87, 88, 89, 90, and 91 inhibited the migration of neutrophils at a concentration of 40 μM or less, and further, the compounds of Examples 1, 11, 12, 13, 14, 15, 19, 21, 22, 24, 31, and 41 inhibited the migration of neutrophils at a concentration of 10 μM or less. Further, trans-benzyl-[4-(2,3-dihydro-1,5-diazaphenalen-1-yl)cyclohexyl]amine inhibited the migration of neutrophils at a concentration of 40 μM or less.

[4] = test system: phosphorylated myosin regulatory light chain in neutrophils; assay: Action on amount of phosphorylated myosin regulatory light chain in the cells (Test Example 1); format: cell-based; details: Neutrophil, 5 min; human neutrophils, reaction at 25° C. for 5 minutes; read-out: concentration at which the phosphorylation of myosin regulatory light chain is inhibited (IC50)
Protocol: A volume of 50 to 100 ml of peripheral blood collected from healthy volunteers was centrifuged by using Mono-Poly separator solution (Dainippon Pharmaceutical) to prepare a neutrophil containing fraction. The neutrophils were washed with PBS(−) and resuspended in Hanks' Balanced Salt Solution (HBSS+, Gibco) to prepare a cell suspension (8×10^6/ml). The cell suspension was diluted to 5×10^6/ml, introduced into Eppendorf tubes in a volume of 0.4 ml each, then 0.1 ml each of solutions of a test compound at various concentrations were added to the suspension and allowed to react at 25° C. for 5 minutes. After the reaction, 0.1 ml of trichloroacetic acid solution was added to each reaction, the reaction mixture was gently shaken and centrifuged at 12,000 rpm (4° C., 5 minutes), and the supernatant was removed. Subsequently, 3 μl of 1 M Tris solution was added to the residue, the mixture was further mixed with 50 μl of extraction buffer (8 M urea, 0.02% 2-mercaptoethanol, 0.002% bromophenol blue) and left stand at room temperature for 1 hour. Then, the reaction mixture was loaded on a spin column (0.45 μm, Millipore) to remove the insoluble solids and a sample buffer for SDS polyacrylamide gel electrophoresis (25 mM, Tris-HCl pH 6.8, 2.5% 2-mercaptoethanol, 2% sodium dodecylsulfate, 5% sucrose, 0.002% bromophenol blue as final concentrations) was added, and 10 μl of each sample was subjected to electrophoresis.
The gel after the electrophoresis was blotted on a nitrocellulose membrane (BioRad), blocked with 5% skim milk, and reacted successively with antibodies pLC1 (Sakurada K. et al, Am. J. Physiol., 274, C1563–C1572 (1998)), which specifically recognize the phosphorylated myosin regulatory light chain, and donkey anti-mouse IgG (Chemicon) conjugated with horseradish peroxidase. The band of the phosphorylated myosin regulatory light chain was detected on a film by using ECL Plus Kit (Amersham Pharmacia Biotech). This band was subjected to quantification using a densitometer. By using this value, the inhibitory ratio (%) for phosphorylation of the myosin regulatory light chain was calculated by using the following equation. Phosphorylation inhibition ratio (%)=1−(Band intensity of phosphorylated myosin regulatory light chain with addition of the test compound/Band intensity of phosphorylated myosin regulatory light chain without addition of the test compound)×100
Further, the phosphorylation inhibition ratio was calculated with changing the concentrations of the test compound, and a compound concentration providing an inhibition ratio of 50% was obtained as IC50.

SMILES	IC50 (neutrophils)	IC50 [4]	intraocular pressure reducing action (intraocular pressure)	pulmonary inflammation, total infiltrated leucocyte (WBC) number [1]	neurite outgrowth (neurite length) [2]	vasoconstriction inhibitory action (relaxation ratio) [3]
CN[C@H]1CC[C@H](N2CCc3cncc4cccc2c34)CC1.Cl [Example 41]			significant intraocular pressure reducing action	significantly improved the pathological condition	significant neurite outgrowth axis extension	significant vasoconstriction inhibitory action
COCCN1CCC(N2CCc3cncc4cccc2c34)CC1.Cl [Example 19]			significant intraocular pressure reducing action	significantly improved the pathological condition	significant neurite outgrowth axis extension	significant vasoconstriction inhibitory action
CN(C)[C@H]1CC[C@H](N2CCc3cncc4cccc2c34)CC1 [Example 53, trans-[4-(2,3-dihydro-1,5-diazaphenalen-1-yl)cyclohexyl]dimethylamine]	≤ 40 µM	≤ 40 µM	significant intraocular pressure reducing action			
CC(=O)NCCN1CCC(N2CCc3cncc4cccc2c34)CC1 [Example 42]	≤ 40 µM	≤ 40 µM	significant intraocular pressure reducing action			
Cl.O=C(O)CCN1CCC(N2CCc3cncc4cccc2c34)CC1 [Example 16]			significant intraocular pressure reducing action		significant neurite outgrowth axis extension	significant vasoconstriction inhibitory action

More lines, main results first:

IC50 (neutrophils)	IC50 [4]	SMILES	intraocular pressure reducing action (intraocular pressure)	pulmonary inflammation, total infiltrated leucocyte (WBC) number [1]	neurite outgrowth (neurite length) [2]	vasoconstriction inhibitory action (relaxation ratio) [3]
≤ 40 µM	≤ 40 µM	FC1CNCCC1N1CCc2cncc3cccc1c23 (stereo not shown) [Example 54, 1-(3-fluoropiperidin-4-yl)-2,3-dihydro-1H-1,5-diazaphenalene]	significant intraocular pressure reducing action			
≤ 40 µM	≤ 40 µM	CC(=O)N(C)CCN1CCC(N2CCc3cncc4cccc2c34)CC1 [Example 59, N-{2-[4-(2,3-dihydro-1,5-diazaphenalen-1-yl)piperidin-1-yl]ethyl}-N-methylacetamide]	significant intraocular pressure reducing action			
≤ 40 µM	≤ 40 µM	O=C1CCN1CCN1CCC(N2CCc3cncc4cccc2c34)CC1 [Example 60, 1-{2-[4-(2,3-dihydro-1,5-diazaphenalen-1-yl)piperidin-1-yl]ethyl}azetidin-2-one]	significant intraocular pressure reducing action			
≤ 40 µM	≤ 40 µM	c1ccc(CN[C@H]2CC[C@H](N3CCc4cncc5cccc3c45)CC2)cc1 [trans-benzyl-[4-(2,3-dihydro-1,5-diazaphenalen-1-yl)cyclohexyl]amine]				

Source: patent publication US7160894B2, “Tricyclic compound” (Asahi Kasei Pharma Corporation, priority 2003, dated 2007)
